Data reported in US5811408A, “2'-deoxy-2'-(substituted or unsubstituted)methylidene-4'-thionucleosides” (Yamasa Corporation, priority 1994, dated 1998).
Converted amounts (≈) assume the structure as drawn.

Columns and labels:
NUGC-4 = experiment: Proliferation Inhibitory Activity on Cultured Cells (in vitro test, MTT), NUGC-4; type: cell-based; conditions: Homo sapiens; NUGC-4, Stomach adenocarcinoma; 72 hours, 37° C.
Procedure: (§1) Proliferation Inhibitory Activity on Cultured Cells (in vitro test)
(§2) Cells in the logarithmic growth phase were suspended in a medium for inoculation, and seeded into each well of a 96-well plate so that the number of the cells would be 3×10^3 /180 microliters/well. To each well was added 20 microliters of a sample solution or water, and incubation was carried out at 37° C. for 72 hours. After incubation, 25 microliters of an MTT solution (2 mg/ml, prepared in PBS) was added, and incubation was further conducted at 37° C. for 4 hours. The medium was removed, and the MTT-formazane formed was dissolved in 200 microliters of dimethyl sulfoxide. The absorbance at 540 nm of this solution was measured by a microplate reader. The proliferation inhibitory rate obtained by calculation was plotted on a graph paper against the concentration of the sample. Then, the 50% inhibitory concentration (IC50) was determined for evaluation of the antitumor effect.
(§3) The results of the test carried out by using the compound of the present invention (the beta-anomer of 2'-deoxy-2'-methylidene-4'-thiocytidine synthesized in Example 1) are shown in Table 1.

KKLS = experiment: Proliferation Inhibitory Activity on Cultured Cells (in vitro test, MTT), KKLS; type: cell-based; conditions: Stomach adenocarcinoma, 72 hours, 37° C.
Procedure: as §1, §2, §3

Colo320DM = experiment: Proliferation Inhibitory Activity on Cultured Cells (in vitro test, MTT), Colo320DM; type: cell-based; conditions: Homo sapiens, COLO 320DM, Colon adenocarcinoma, 72 hours, 37° C.
Procedure: as §1, §2, §3

HCT-15 = experiment: Proliferation Inhibitory Activity on Cultured Cells (in vitro test, MTT), HCT-15; type: cell-based; conditions: Homo sapiens; HCT-15, Colon adenocarcinoma; 72 hours, 37° C.
Procedure: as §1, §2, §3

Mia-PaCa-2 = experiment: Proliferation Inhibitory Activity on Cultured Cells (in vitro test, MTT), Mia-PaCa-2; type: cell-based; conditions: Homo sapiens; Mia-PaCa-2, Pancreas carcinoma; 72 hours, 37° C.
Procedure: as §1, §2, §3

PC-10 = experiment: Proliferation Inhibitory Activity on Cultured Cells (in vitro test, MTT), PC-10; type: cell-based; conditions: Homo sapiens, PC10; PC-10, Lung squamous cell carcinoma; 72 hours, 37° C.
Procedure: as §1, §2, §3

Lu-65 = experiment: Proliferation Inhibitory Activity on Cultured Cells (in vitro test, MTT), Lu-65; type: cell-based; conditions: Homo sapiens; Lu-65, Large cell lung carcinoma; 72 hours, 37° C.
Procedure: as §1, §2, §3

QG-90 = experiment: Proliferation Inhibitory Activity on Cultured Cells (in vitro test, MTT), QG-90; type: cell-based; conditions: Homo sapiens; QG-90, Small cell lung carcinoma; 72 hours, 37° C.
Procedure: as §1, §2, §3

QG-96 = experiment: Proliferation Inhibitory Activity on Cultured Cells (in vitro test, MTT), QG-96; type: cell-based; conditions: QG-96, Small cell lung carcinoma; 72 hours, 37° C.
Procedure: as §1, §2, §3

MCF-7 = experiment: Proliferation Inhibitory Activity on Cultured Cells (in vitro test, MTT), MCF-7; type: cell-based; conditions: Homo sapiens, MCF7; MCF-7, Breast carcinoma; 72 hours, 37° C.
Procedure: as §1, §2, §3

KK-47 = experiment: Proliferation Inhibitory Activity on Cultured Cells (in vitro test, MTT), KK-47; type: cell-based; conditions: Homo sapiens; KK-47, Bladder carcinoma; 72 hours, 37° C.
Procedure: as §1, §2, §3

HOS = experiment: Proliferation Inhibitory Activity on Cultured Cells (in vitro test, MTT), HOS; type: cell-based; conditions: Homo sapiens, Osteosarcoma, 72 hours, 37° C.
Procedure: as §1, §2, §3

MG-63 = experiment: Proliferation Inhibitory Activity on Cultured Cells (in vitro test, MTT), MG-63; type: cell-based; conditions: Homo sapiens; MG-63, Osteosarcoma; 72 hours, 37° C.
Procedure: as §1, §2, §3

HEp-2 = experiment: Proliferation Inhibitory Activity on Cultured Cells (in vitro test, MTT), HEp-2; type: cell-based; conditions: Homo sapiens; HEp-2, Esophagus carcinoma; 72 hours, 37° C.
Procedure: as §1, §2, §3

A375 = experiment: Proliferation Inhibitory Activity on Cultured Cells (in vitro test, MTT), A375; type: cell-based; conditions: Homo sapiens, A-375; A375, Melanoma; 72 hours, 37° C.
Procedure: as §1, §2, §3

SK-Mel-28 = experiment: Proliferation Inhibitory Activity on Cultured Cells (in vitro test, MTT), SK-Mel-28; type: cell-based; conditions: Homo sapiens; SK-Mel-28, Melanoma; 72 hours, 37° C.
Procedure: as §1, §2, §3

HT1080 = experiment: Proliferation Inhibitory Activity on Cultured Cells (in vitro test, MTT), HT1080; type: cell-based; conditions: Homo sapiens, HT-1080; HT1080, Soft tissue sarcoma; 72 hours, 37° C.
Procedure: as §1, §2, §3

[1] = tested on: murine P388 leukemia cells; experiment: Antitumor Activity in mice bearing P388 leukemia (in vivo test); conditions: BDF1 mice, 10 mg/kg intraperitoneally once a day, Day 1, 2, 5, 6
Procedure: Antitumor Activity in mice bearing P388 leukemia (in vivo test)
DBA/2 mice were intraperitoneally inoculated with murine P388 leukemia cells. On day 0, ascites was collected from the DBA/2 mice, and P388 leukemia cells were intraperitoneally implanted into BDF1 mice so that the number of the cells would be 1×10^6 /mouse. A sample was dissolved in dimethyl sulfoxide, and this sample solution was intraperitoneally administered to the mice once a day. The antitumor effect was evaluated by comparing the survival time of the administered group with that of the control group.
The results of the test carried out by using the compound of the present invention (the beta-anomer of 2'-deoxy-2'-methylidene-4'-thiocytidine synthesized in Example 1) are shown in Table 2.

murine S-180 cells = experiment: Antitumor Activity in Mice Implanted with S-180 Cells (in vivo test); conditions: ICR mice, caudal vein, days 1-5 and 7-10; for Weight of Tumor (mean value ± SE): tumor removed on day 35, control 8.70 ± 1.31; for Inhibitory Rate: tumor weight on day 35
Text: Antitumor Activity in Mice Implanted with S-180 Cells (in vivo test)
ICR mice were intraperitoneally inoculated with murine S-180 cells. On day 0, ascites was collected from the ICR mice, and Sarcoma 180 cells were subcutaneously implanted into ICR mice so that the number of the cells would be 5×10^6 /mouse. A sample was suspended in Macrogol-400/Tween 80 (6:0.8) so that the concentration thereof would be 10 times the concentration at the time of the administration thereof. Thereafter, the suspension was diluted to 1/10 with physiological saline, and injected once a day into the caudal vein of the mice on days 1-5, and on days 7-10. The antitumor effect (inhibitory rate) was evaluated by measuring the weight of the tumor removed on day 35.
The results of the test carried out by using the compound of the present invention (the beta-anomer of 2'-deoxy-2'-methylidene-4'-thiocytidine synthesized in Example 1) are shown in Table 3.

C=C1[C@H](n2ccc(N)nc2=O)S[C@H](CO)[C@H]1O [Compound of the Invention, 2'-deoxy-2'-methylidene-4'-thiocytidine]
IC50 (NUGC-4): 0.6 µg/mL (≈ 2.35 µM) | IC50 (KKLS): 0.77 µg/mL (≈ 3.02 µM) | IC50 (Colo320DM): 0.06 µg/mL (≈ 0.235 µM) | IC50 (HCT-15): 0.65 µg/mL (≈ 2.55 µM) | IC50 (Mia-PaCa-2): 2.4 µg/mL (≈ 9.4 µM) | IC50 (PC-10): 1.5 µg/mL (≈ 5.88 µM) | IC50 (Lu-65): 0.075 µg/mL (≈ 0.294 µM) | IC50 (QG-90): 0.32 µg/mL (≈ 1.25 µM) | IC50 (QG-96): 0.5 µg/mL (≈ 1.96 µM) | IC50 (MCF-7): 0.3 µg/mL (≈ 1.18 µM) | IC50 (KK-47): 0.38 µg/mL (≈ 1.49 µM) | IC50 (HOS): 0.45 µg/mL (≈ 1.76 µM) | IC50 (MG-63): 0.53 µg/mL (≈ 2.08 µM) | IC50 (HEp-2): 4.1 µg/mL (≈ 16.1 µM) | IC50 (A375): 0.25 µg/mL (≈ 0.979 µM) | IC50 (SK-Mel-28): 0.092 µg/mL (≈ 0.36 µM) | IC50 (HT1080): 0.21 µg/mL (≈ 0.823 µM) | MST (Median survival time) ([1]; control (DMSO) 9.0 days): 12.0 days | T/C ([1]; survival vs control (DMSO) = 100): 133% | Weight of Tumor (mean value ± SE) (murine S-180 cells; 20 mg/kg/day): 6.39 ± 1.07 | Inhibitory Rate (murine S-180 cells; 20 mg/kg/day): 26.6% | Weight of Tumor (mean value ± SE) (murine S-180 cells; 100 mg/kg/day): 0.80 ± 0.24 | Inhibitory Rate (murine S-180 cells; 100 mg/kg/day): 90.8%
